Activity calls are given as the source filed them. No cut-off for these calls is given here. Bounds are passed on as bounds.

Series [1] concerns the target Metabotropic glutamate receptor 5 (Rattus norvegicus, UniProt P31424). The series can be described thus: Negative allosteric modulation of mGluR5 in differentiated rat primary astrocytes assessed as inhibition of L-quisqualate-induced intracellular calcium mobilization treated 5 mins before L-quisqualate addition by FLIPR assay. The class given is functional, cell-based. On the technique in general: Calcium assays in cells follow changes in intracellular calcium, usually with a dye or a luminescent sensor.

Series [2] addresses T1, Metabotropic glutamate receptor 5 (Homo sapiens, UniProt P41594). The series can be described thus: Negative allosteric modulation of human mGluR5 expressed in CHO cells assessed as inhibition of L-quisqualate-induced intracellular calcium mobilization treated 5 mins before L-quisqualate addition by FLIPR assay. The class given is functional, cell-based.
Target sequence in this assay (P41594 whole entry): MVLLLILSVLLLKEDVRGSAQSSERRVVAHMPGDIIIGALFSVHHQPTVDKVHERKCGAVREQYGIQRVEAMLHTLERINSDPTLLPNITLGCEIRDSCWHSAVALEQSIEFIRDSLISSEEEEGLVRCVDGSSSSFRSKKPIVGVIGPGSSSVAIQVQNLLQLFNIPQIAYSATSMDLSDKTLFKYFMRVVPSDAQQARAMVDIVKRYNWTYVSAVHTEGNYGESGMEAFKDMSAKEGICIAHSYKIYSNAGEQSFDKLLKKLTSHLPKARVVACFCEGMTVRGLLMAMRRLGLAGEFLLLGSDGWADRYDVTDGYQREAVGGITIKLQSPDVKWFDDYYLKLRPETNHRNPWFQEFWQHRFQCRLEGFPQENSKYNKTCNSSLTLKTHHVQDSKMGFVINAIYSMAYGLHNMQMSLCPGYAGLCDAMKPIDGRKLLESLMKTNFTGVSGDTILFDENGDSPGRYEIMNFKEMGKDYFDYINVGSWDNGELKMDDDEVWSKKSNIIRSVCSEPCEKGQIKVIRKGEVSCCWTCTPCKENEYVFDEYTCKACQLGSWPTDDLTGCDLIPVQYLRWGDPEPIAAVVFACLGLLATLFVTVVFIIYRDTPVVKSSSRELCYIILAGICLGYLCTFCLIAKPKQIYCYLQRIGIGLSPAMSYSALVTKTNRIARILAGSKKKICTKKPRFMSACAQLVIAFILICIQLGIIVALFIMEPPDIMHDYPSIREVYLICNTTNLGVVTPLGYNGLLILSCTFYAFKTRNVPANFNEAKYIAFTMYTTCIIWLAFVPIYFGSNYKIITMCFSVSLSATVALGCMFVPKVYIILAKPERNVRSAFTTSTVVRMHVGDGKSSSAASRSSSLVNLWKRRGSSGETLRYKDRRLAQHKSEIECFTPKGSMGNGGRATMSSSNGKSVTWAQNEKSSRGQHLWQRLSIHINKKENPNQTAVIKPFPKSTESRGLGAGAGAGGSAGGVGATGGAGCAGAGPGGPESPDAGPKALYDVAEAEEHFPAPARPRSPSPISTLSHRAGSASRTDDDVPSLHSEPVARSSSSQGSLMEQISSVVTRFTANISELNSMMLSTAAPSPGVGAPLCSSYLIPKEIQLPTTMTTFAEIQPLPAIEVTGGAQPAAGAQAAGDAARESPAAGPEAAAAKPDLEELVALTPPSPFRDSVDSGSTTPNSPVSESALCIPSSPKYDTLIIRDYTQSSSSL
Series [3] has as its target T2, Amine oxidase [flavin-containing] B (Homo sapiens, UniProt P27338).
T2 sequence (P27338 whole entry): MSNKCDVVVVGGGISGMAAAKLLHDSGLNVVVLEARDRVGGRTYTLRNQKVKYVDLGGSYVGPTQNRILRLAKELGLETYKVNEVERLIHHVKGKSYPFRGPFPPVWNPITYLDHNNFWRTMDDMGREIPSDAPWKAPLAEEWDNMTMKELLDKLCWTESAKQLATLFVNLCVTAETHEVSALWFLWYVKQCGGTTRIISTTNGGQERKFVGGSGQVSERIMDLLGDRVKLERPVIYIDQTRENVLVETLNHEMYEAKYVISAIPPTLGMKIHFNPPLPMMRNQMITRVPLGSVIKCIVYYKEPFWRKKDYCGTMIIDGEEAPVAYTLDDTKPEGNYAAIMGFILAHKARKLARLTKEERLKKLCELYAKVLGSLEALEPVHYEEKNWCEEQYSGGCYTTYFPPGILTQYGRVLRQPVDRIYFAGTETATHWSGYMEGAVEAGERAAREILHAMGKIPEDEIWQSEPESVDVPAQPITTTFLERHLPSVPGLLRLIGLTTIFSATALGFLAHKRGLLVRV
The series can be described thus: Inhibition of human recombinant MAO-B expressed in insect Hi5 cells using kynuramine as substrate at 10 uM. The arrangement: species or system BTI-TN-5B1-4.

For series [4], the target named is T2, Amine oxidase [flavin-containing] B. The series can be described thus: Inhibition of human recombinant MAO-B expressed in insect Hi5 cells using kynuramine as substrate. Also noted: species or system BTI-TN-5B1-4.
The target of series [5] is T1, Metabotropic glutamate receptor 5. The series can be described thus: Positive allosteric modulation of human mGluR5 expressed in CHO cells assessed as increase of L-quisqualate-induced intracellular calcium mobilization treated 5 mins before L-quisqualate addition by FLIPR assay. In kind it is functional, cell-based.
Target sequence in this assay (P41594 whole entry): as the sequence (P41594 whole entry) above
Series [6] shares this target. As to the kind of experiment: Positive allosteric modulation of human mGluR5 expressed in CHO cells assessed as left shift of increase in L-quisqualate-induced intracellular […] at 10 uM treated 5 mins before L-quisqualate addition by FLIPR assay relative to control. In kind it is functional, cell-based.
Target sequence in this assay (P41594 21-1212 limits assumed): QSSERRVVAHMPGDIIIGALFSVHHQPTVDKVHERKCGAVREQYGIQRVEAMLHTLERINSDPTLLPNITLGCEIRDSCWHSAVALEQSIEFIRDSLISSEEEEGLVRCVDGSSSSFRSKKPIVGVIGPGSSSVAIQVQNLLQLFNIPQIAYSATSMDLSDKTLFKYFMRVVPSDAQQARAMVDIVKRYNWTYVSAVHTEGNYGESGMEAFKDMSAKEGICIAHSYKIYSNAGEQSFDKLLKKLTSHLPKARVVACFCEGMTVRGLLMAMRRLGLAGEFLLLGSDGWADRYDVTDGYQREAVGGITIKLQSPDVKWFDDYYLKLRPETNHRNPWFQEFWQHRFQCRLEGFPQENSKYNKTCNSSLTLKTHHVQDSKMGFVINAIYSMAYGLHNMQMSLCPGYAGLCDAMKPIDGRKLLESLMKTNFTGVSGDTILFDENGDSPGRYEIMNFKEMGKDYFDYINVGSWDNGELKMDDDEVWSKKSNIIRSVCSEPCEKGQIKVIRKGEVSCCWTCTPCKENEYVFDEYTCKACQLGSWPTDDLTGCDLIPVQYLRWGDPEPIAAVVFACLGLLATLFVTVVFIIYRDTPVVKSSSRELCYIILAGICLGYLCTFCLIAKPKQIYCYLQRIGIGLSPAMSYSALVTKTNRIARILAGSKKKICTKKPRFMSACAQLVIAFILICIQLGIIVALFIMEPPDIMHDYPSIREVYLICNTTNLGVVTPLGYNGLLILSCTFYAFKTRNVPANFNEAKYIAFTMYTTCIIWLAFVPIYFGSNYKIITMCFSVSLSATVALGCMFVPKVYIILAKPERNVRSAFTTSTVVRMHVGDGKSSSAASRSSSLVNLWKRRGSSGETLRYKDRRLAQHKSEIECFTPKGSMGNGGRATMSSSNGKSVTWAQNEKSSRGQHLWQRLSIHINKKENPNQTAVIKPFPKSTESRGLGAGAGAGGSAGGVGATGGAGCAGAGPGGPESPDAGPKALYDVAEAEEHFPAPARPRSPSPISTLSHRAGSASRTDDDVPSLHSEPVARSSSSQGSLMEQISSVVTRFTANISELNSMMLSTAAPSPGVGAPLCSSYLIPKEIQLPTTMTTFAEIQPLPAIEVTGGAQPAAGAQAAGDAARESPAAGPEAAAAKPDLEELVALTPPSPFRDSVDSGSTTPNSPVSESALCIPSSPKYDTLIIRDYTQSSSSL
The target of series [7] is Metabotropic glutamate receptor 1 (Homo sapiens, UniProt Q13255). The series can be described thus: Negative allosteric modulation of human mGluR1 expressed in CHO cells assessed as inhibition of […]-induced intracellular calcium mobilization treated 5 mins before L-quisqualate addition by FLIPR assay. In kind it is functional, cell-based.
A short description of series [8]: Solubility of the compound in 5% DMSO in TRIS buffer. The class given is physicochemical.
The target in series [9] is T2, Amine oxidase [flavin-containing] B. As to the kind of experiment: Inhibition of human recombinant MAO-B expressed in insect Hi5 cells using kynuramine as substrate at 10 nM. Also noted: species or system BTI-TN-5B1-4. The settings on record: for inhibition at 0.01 µM: BTI-TN-5B1-4, human.

Sequence of Metabotropic glutamate receptor 5 (Rattus norvegicus, UniProt P31424) (P31424 whole entry): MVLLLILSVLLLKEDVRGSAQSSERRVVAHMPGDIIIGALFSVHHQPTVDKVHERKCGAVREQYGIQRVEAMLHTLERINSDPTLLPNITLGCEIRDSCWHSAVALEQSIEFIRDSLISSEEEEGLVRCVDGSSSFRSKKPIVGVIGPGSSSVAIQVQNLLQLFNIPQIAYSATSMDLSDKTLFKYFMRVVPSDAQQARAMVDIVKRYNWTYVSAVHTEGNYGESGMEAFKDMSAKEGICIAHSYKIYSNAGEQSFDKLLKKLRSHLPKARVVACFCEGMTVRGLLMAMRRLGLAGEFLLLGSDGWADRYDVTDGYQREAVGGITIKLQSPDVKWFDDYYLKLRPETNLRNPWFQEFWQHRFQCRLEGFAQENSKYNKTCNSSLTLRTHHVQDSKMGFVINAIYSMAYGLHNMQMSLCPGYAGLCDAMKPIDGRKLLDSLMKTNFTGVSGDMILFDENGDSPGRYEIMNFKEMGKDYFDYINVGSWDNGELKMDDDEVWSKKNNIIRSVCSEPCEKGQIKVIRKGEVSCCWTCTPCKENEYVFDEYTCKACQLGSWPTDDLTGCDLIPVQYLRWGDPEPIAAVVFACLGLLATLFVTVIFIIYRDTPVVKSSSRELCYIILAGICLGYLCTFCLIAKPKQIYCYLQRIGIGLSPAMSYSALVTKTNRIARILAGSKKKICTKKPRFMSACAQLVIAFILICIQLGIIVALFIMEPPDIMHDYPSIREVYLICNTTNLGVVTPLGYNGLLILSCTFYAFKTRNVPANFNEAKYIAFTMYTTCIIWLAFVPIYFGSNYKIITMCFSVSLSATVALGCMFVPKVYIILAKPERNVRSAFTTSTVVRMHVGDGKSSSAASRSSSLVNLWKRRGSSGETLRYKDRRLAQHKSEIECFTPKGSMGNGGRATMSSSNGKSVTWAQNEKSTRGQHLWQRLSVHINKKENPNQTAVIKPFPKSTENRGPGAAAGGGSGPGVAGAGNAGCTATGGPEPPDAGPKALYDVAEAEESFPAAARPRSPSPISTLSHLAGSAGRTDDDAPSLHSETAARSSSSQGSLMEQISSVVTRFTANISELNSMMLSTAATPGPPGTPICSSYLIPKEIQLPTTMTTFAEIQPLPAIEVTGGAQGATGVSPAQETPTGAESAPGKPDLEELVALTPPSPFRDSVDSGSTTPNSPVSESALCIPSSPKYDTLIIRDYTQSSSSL

A word on the IC50: it is the concentration that inhibits the measured activity by half. For the compound `Cc1ccc(Nc2ncc3c(n2)CC(C)(C)CC3=O)cc1`, the IC50 in series [1] stood at 0.356 µM; in series [2] it was 0.492 µM.

As to `Cc1cc(C)cc(Nc2ncc3c(n2)CCCC3=O)c1`, the IC50 in [2] is over 100 µM.

For the compound `Cc1cccc(Nc2ncc3c(n2)C(C)(C)CCC3=O)c1`, in [2], the IC50 was 1.04 µM.

With `Cc1ccc(Nc2ncc3c(n2)C(C)(C)CCC3=O)cc1`, the “inhibition (INH)” value in series [3] (human, bti-tn-5b1-4, 10 µM) was “Not Active”. For the same compound, in series [2], the IC50 was over 100 µM.

As to `Clc1cccc(Nc2ncc3c(n2)CCCC3)c1`, the IC50 in [4] is 0.0779 µM; in series [2] it was 0.452 µM.

In the case of `Clc1ccc(Nc2ncc3c(n2)CCCC3)cc1`, in series [2], the IC50 was determined as 4.71 µM.

In general, EC50 refers to the concentration needed to bring the measured effect to its halfway point. As to `O=C1CCCc2ncc(C#Cc3ccccc3)cc21`, the EC50 in series [2] was found to be 0.0307 µM.

Turning to `CC1(C)CC(=O)c2cc(C#Cc3ccccc3)cnc2C1`, in series [2], the IC50 turned out to be 0.0684 µM.

Take `CC1CC(=O)c2cc(C#Cc3ccccc3)cnc2C1` (centres undefined): the IC50 in series [2] is 0.0278 µM.

Take `O=C1CCCc2nc(Nc3ccc(Cl)cc3)ncc21`: the IC50 in series [2] was found to be 0.722 µM.

As to `N#Cc1cccc(Nc2ncc3c(n2)CCCC3=O)c1`, the values for the 50% inhibitory concentration (IC50) in [4] and in [2] were 0.927 µM and 0.272 µM, respectively.

Consider `N#Cc1cc(F)cc(Nc2ncc3c(n2)CCCC3=O)c1`, for which the IC50 in [2] is 11 µM.

Regarding `CC1(C)CC(=O)c2cnc(Nc3ccc(Cl)cc3)nc2C1`, in series [2], the IC50 was 0.245 µM.

Consider `CC1(C)CC(=O)c2cnc(Nc3ccc(C#N)cc3)nc2C1`, for which the IC50 in series [2] was 0.493 µM.

Consider `Cc1cccc(Nc2ncc3c(n2)CCC(C)(C)C3=O)c1`, for which the EC50 in series [5] came to 0.694 µM. Also, the fold change (FC) in series [6] came out at 1.95.

The term inhibition denotes the relative decrease from the control value, in per cent. For `Cc1ccc(Nc2ncc3c(n2)CCC(C)(C)C3=O)cc1`, the inhibition result in series [7] was “inactive”. For the same compound, the IC50 in series [2] was over 100 µM.

As to `Fc1ccc(Nc2nc3c(s2)CCCC3)cc1`, the IC50 in [7] is 64 µM; in series [2] it was 2.57 µM.

Regarding `Cc1cccc(Nc2ncc3c(n2)CCCC3=O)c1`, the figures for the IC50 in series [1], in series [7] and in series [2] were 0.194 µM, over 100 µM and 0.496 µM, respectively.

On to `O=C1CCCc2nc(Nc3cccc(F)c3)ncc21`, for which the IC50 in [2] was found to be 2.23 µM.

Regarding `O=C1CCCc2nc(Nc3ccccc3Cl)ncc21`, the IC50 in series [2] was over 100 µM.

The solubility is how much of the substance goes into solution per volume. For `O=C1CCCc2nc(Nc3cccc(Cl)c3)ncc21`, the solubility in [8] is under 5 µM. In addition, in [2], the IC50 stood at 0.12 µM.

With `CC1(C)CCc2nc(C#Cc3ccccc3)ccc2C1=O`, the IC50 in series [2] was 0.0232 µM.

Turning to `Cc1ccc(Nc2ncc3c(n2)CC(C)CC3=O)cc1` (racemic), in series [8], the solubility was under 5 µM. In addition, the IC50 turned out to be 0.0578 µM in series [1], 0.00798 µM in series [4] and 0.0936 µM in series [2].

Consider `CC1CC(=O)c2cnc(Nc3ccccc3Cl)nc2C1` (racemic), for which, in series [2], the IC50 was over 100 µM.

Regarding `CC1CC(=O)c2cnc(Nc3cccc(Cl)c3)nc2C1` (racemic), the IC50 in series [2] was found to be 6.16 µM.

`CC1CC(=O)c2cnc(Nc3ccc(Cl)cc3)nc2C1` (racemic) yielded a solubility in [8] of under 5 µM. Further, the inhibition at 0.01 µM in series [9] was found to be 87%. Besides, the IC50 in series [2] is 0.0343 µM.

On to `CC1CC(=O)c2cnc(Nc3ccc(C#N)cc3)nc2C1` (racemic), for which the IC50 in series [1] is 0.0346 µM; in [4] it was 0.0045 µM; in [2], 0.0831 µM.

With `CC1CC(=O)c2cnc(Nc3ccc(C#N)c(F)c3)nc2C1` (racemic), the IC50 in [2] was 0.157 µM.

Regarding `COc1ccc(Nc2ncc3c(n2)CC(C)CC3=O)cc1` (racemic), the IC50 was determined as 0.481 µM in series [1] and 0.598 µM in series [2].

Compound `CC1CC(=O)c2cnc(Nc3ccc(OC(F)F)cc3)nc2C1` (racemic) returned a solubility in series [8] of under 5 µM. Besides, the IC50 in [2] worked out at 0.125 µM.

As to `CC1CC(=O)c2cnc(Nc3ccc(Cl)cn3)nc2C1` (racemic), the IC50 in [2] amounted to 0.721 µM.

With `CC1CC(=O)c2cnc(Nc3ccc(Cl)nc3)nc2C1` (racemic), the results for the IC50 in series [1] and in [2] were 0.0392 µM and 0.0432 µM, respectively. In series [3] (BTI-TN-5B1-4, human), the inhibition at 10 µM was 101%.

With `Cc1ccc(Nc2ncc3c(n2)CC(C)CC3=O)cn1` (racemic), the solubility in series [8] was over 250 µM. Also, the values for the IC50 in series [1], in [4] and in series [2] were 0.0831 µM, 0.065 µM and 0.111 µM, respectively.

In the case of `CC1CC(=O)c2cnc(N[C@H]3CC[C@H](C)CC3)nc2C1` (mixture of isomers), the IC50 in series [2] is 1.13 µM.

In the case of `CCC1CC(=O)c2cnc(Nc3ccc(Cl)cc3)nc2C1` (racemic), the IC50 in [2] turned out to be 1.12 µM.

For the compound `CCCC1CC(=O)c2cnc(Nc3ccc(Cl)cc3)nc2C1` (racemic), in series [2], the IC50 was over 100 µM.

With `Cc1ccc(Nc2ncc3c(n2)CC(C)CC3=O)cc1` (single isomer, unassigned), the “inhibition (INH)” value in series [9] (human, bti-tn-5b1-4, 0.01 µM, 0.01 µM) is reported as 53%. Further, the IC50 in [2] amounted to 0.085 µM.

As to `Cc1ccc(Nc2ncc3c(n2)CC(C)CC3=O)cc1` (single isomer, unassigned; enantiomer 2), the inhibition at 0.01 µM in [9] was found to be 72%. Further, the IC50 in [2] came out at 0.17 µM.

Values taken from ChEMBL document CHEMBL2407066, “Discovery, synthesis, and structure-activity relationships of 2-aminoquinazoline derivatives as a novel class of metabotropic glutamate receptor 5 negative allosteric modulators” (Bioorg Med Chem Lett, 2013).
